Laboratory results published in PMC7154053, “Chemical, Metabolic, and Cellular Characterization of a FtsZ Inhibitor Effective Against Burkholderia cenocepacia” (Frontiers in Microbiology, 2020).
In brackets after ≈: the same amount, converted by molar mass. Like-named read-outs stand apart in the source and are kept apart here.

T1: B. cenocepacia nitroreductase BCAL0539 (BcNR) (Burkholderia cenocepacia, UniProt B4E8I2)
T1 sequence (B4E8I2 1-242): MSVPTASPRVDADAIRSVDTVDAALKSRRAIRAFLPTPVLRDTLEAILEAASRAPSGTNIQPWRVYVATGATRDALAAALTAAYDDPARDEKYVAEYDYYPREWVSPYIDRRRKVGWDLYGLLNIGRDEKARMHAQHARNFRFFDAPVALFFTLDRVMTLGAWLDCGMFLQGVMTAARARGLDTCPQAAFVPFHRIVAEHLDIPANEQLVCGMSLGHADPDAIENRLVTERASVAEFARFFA

B1: B. cenocepacia nitroreductase BCAL0539 (BcNR) (Burkholderia cenocepacia J2315) (protein)
chain: T1 sequence (B4E8I2 1-242)

Tests used:
[1] = target: T1, B. cenocepacia nitroreductase BCAL0539 (BcNR); test: BcNR nitroreductase steady-state kinetics (NADPH decrease at 340 nm); assay type: biochemical; conditions: compound as substrate of BcNR
Description: (§1) The reaction mixture typically contained 50 mM potassium phosphate pH 8.0, 50 mM KCl, 5–10 μM BcNR, and reactions were started by adding the substrate. Steady-state kinetics parameters were determined by assaying the enzyme at variable concentrations of substrate (10–500 μM). The experiments were performed in triplicate, and the kinetic constants Km and kcat determined by fitting the data to the Michaelis-Menten equation using Origin 8 software.

B. cenocepacia J2315 = test: MIC, 2-fold microdilution, resazurin method; assay type: cell-based, Burkholderia cenocepacia; conditions: for MIC: Burkholderia cenocepacia; for activity compared with C109, in words: SAR statements, against both bacteria and the purified enzyme
Description: (§2) Burkholderia cenocepacia strains, Escherichia coli ATCC 25922, Pseudomonas aeruginosa PAO1, and Staphylococcus aureus ATCC 25923 were grown in Luria-Bertani (LB) medium (Difco), if not differently specified, with shaking at 200 rpm, or on LB agar, at 37°C.
(§3) The microtiter plates were incubated at 37°C for 48 (for B. cenocepacia) or 24 h (for all the other strains) and growth was determined by the resazurin method (Martin et al., [2006]). A solution of resazurin sodium salt (Sigma Aldrich) was prepared at 0.01% in distilled water and filter-sterilized. Thirty microliter of resazurin solution were added to each well after 1 or 2 days of incubation at 37°C, and the microtiters were re-incubated at the same temperature for 4 h. The MIC was defined as the lowest concentration of the drug that prevented a change in color from blue to pink, which indicates bacterial growth.
(§4) Three independent biological replicates were used for each MIC determination.

[2] = target: Burkholderia cenocepacia purified FtsZ protein (Burkholderia cenocepacia, UniProt B4E5Y7); test: biochemical; assay type: biochemical; conditions: for Inhibition of Bc FtsZ At 100 μM: 100 μM compound; for Inhibition of Bc FtsZ At 100 μM / Inhibits B. cenocepacia FtsZ GTPase at 100µM?: Yes/No; for Inhibits B. cenocepacia FtsZ GTPase at 100µM?: Supplementary Table 1
Burkholderia cenocepacia purified FtsZ protein, sequence (B4E5Y7 entry or part of it): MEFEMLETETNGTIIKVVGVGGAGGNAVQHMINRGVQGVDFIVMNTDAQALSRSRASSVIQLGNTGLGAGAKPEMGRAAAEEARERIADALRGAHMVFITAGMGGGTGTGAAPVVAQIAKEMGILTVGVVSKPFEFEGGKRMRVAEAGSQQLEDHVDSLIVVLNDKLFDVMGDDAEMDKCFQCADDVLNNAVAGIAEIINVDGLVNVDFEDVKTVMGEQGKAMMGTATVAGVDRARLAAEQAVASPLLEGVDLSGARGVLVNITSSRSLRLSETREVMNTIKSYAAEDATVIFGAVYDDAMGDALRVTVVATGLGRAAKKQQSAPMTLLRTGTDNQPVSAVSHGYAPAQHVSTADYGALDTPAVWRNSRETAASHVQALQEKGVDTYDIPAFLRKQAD
Description: All the recombinant FtsZ proteins were expressed at 20°C overnight in E. coli BL21(DE3) cells, upon induction with 0.5 mM IPTG, and purified using the same protocol assessed for the wild-type B. cenocepacia FtsZ (Hogan et al., [2018]).
GTPase enzyme activity was determined using a pyruvate kinase/L-lactic dehydrogenase (PK/LDH) spectrophotometric coupled assay (Ingerman and Nunnari, [2005]). The assays were performed at 30°C, in a reaction mixture containing […] Hepes pH 7.5, 5 mM MgCl2, 5 mM KCl, 10 U PK/LDH, 0.25 mM NADH, 0.25 mM PEP, and 5–10 μM FtsZ, and initiated by the addition of 0.5 mM GTP. Alternatively, GTPase activity was determined by measuring the release of phosphate using the malachite green assay (Baykov et al., [1988]).
(1) A[I]=A[0]×(1-[I]/[I]+IC50)
where A[I] is the enzyme activity at inhibitor concentration [I] and A[0] is the enzyme activity without inhibitor.

E. coli ATCC 25922 = test: MIC, 2-fold microdilution, resazurin method; assay type: cell-based; conditions: Escherichia coli
Description: as §2, §3, §4

B. cenocepacia = test: Resazurin-based assay of BcNR reaction mixtures; assay type: cell-based, Burkholderia cenocepacia; conditions: BcNR reactions with 1 mM C109, with or without NADPH; C109 result: in the absence of NADPH
Text: To assess whether the resulting BcNR reduction product could inhibit B. cenocepacia growth, we carried out a resazurin-based assay.

S. aureus ATCC 25923 = test: MIC, 2-fold microdilution, resazurin method; assay type: cell-based, Staphylococcus aureus; conditions: for MIC: Staphylococcus aureus
Description: as §2, §3, §4

P. aeruginosa PAO1 = test: MIC, 2-fold microdilution, resazurin method; assay type: cell-based; conditions: Pseudomonas aeruginosa
Description: as §2, §3, §4

B. cenocepacia FCF22 [3] = test: MIC, 2-fold microdilution, resazurin method; assay type: cell-based, Burkholderia cenocepacia; conditions: clinical isolate FCF22; for MIC: Burkholderia cenocepacia
Description: as §2, §3, §4

B. cenocepacia FCF19 [4] = test: MIC, 2-fold microdilution, resazurin method; assay type: cell-based, Burkholderia cenocepacia; conditions: clinical isolate FCF19; for MIC: Burkholderia cenocepacia
Description: as §2, §3, §4

P. aeruginosa = test: Checkerboard assay with efflux pump inhibitor PaβN MC-207.110; assay type: cell-based, Pseudomonas aeruginosa; conditions: Pseudomonas aeruginosa; read-out: MIC in the presence of MC-207.110, P. aeruginosa
Description: as §3, with “growth. […] Three independent biological replicates were used for each MIC determination.” for “growth.”

[5] = tested on: CF bronchial epithelial (CFBE41o-) cell line; test: Toxicity by MTT assay; assay type: cell-based; conditions: CFBE41o- cells, data not shown
B. cenocepacia FCF22 [6] = test: Checkerboard assay with efflux pump inhibitor PaβN MC-207.110; assay type: cell-based, Burkholderia cenocepacia; conditions: checkerboard, MC-207.110 0–128 μg/ml; C109 value at 128 μg/ml
Description: as §3, with “growth. […] Three independent biological replicates were used for each MIC determination.” for “growth.”

B. cenocepacia FCF19 [7] = test: as above; assay type: cell-based, Burkholderia cenocepacia; conditions: checkerboard, MC-207.110 0–128 μg/ml; C109 value at 128 μg/ml
Description: as §3, with “growth. […] Three independent biological replicates were used for each MIC determination.” for “growth.”

[8] = substrate: COC(=O)CSc1ccc2nsnc2c1[N+](=O)[O-]; test: BcNR nitroreductase steady-state kinetics (NADPH decrease at 340 nm); assay type: biochemical, Burkholderia cenocepacia; conditions: other: compound as substrate of BcNR; pH 8.0; 37.0 °C
Description: as §1

[9] = substrate: O=C(O)c1ccc([N+](=O)[O-])cc1; test: as above; assay type: biochemical, Burkholderia cenocepacia; conditions: other: compound as substrate of BcNR; pH 8.0; 37.0 °C
Description: as §1

[10] = J2315, LB, 48 h, read-out: MIC B. cenocepacia J2315
[11] = J2315, Supplementary Table 1, read-out: MIC (µg/ml) B. cenocepacia J2315
[12] = ATCC25922, LB, 24 h, read-out: MIC E. coli 25922
[13] = ATCC25922, Supplementary Table 1, read-out: MIC (µg/ml) E. coli 25922
[14] = ATCC25923, LB, 24 h, read-out: MIC S. aureus 25923
[15] = ATCC25923, Supplementary Table 1, read-out: MIC (µg/ml) S. aureus 25923
[16] = PAO1, LB, 24 h, read-out: MIC P. aeruginosa PAO1
[17] = PAO1, Supplementary Table 1, read-out: MIC (µg/ml) P. aeruginosa PAO1

Molecule | MIC (B. cenocepacia J2315; [10]) | MIC (B. cenocepacia J2315; [11]) | activity compared with C109, in words (B. cenocepacia J2315) | Inhibition of Bc FtsZ At 100 μM [2] | Inhibits B. cenocepacia FtsZ GTPase at 100µM? [2] | MIC (E. coli ATCC 25922; [12]) | MIC (E. coli ATCC 25922; [13]) | melting point | MIC (S. aureus ATCC 25923; [14]) | MIC (S. aureus ATCC 25923; [15]) | MIC (P. aeruginosa PAO1; [16]) | MIC (P. aeruginosa PAO1; [17]) | IC50 [2] | further results
O=C(O)c1ccc([N+](=O)[O-])cc1 [4-nitrobenzoic acid] |  |  |  |  |  |  |  |  |  |  |  |  |  | Vmax (Figure 3) [1]: 17.5 ± 1.4 s⁻¹
O=C1CSc2ccc3nsnc3c2N1 [compound 11626109, 7H-[1,2,5]thiadiazolo[3,4-f][1,4]benzothiazin-8(9H)-one] | 512 µg/mL (≈ 2290 µM) | 512 µg/mL (≈ 2290 µM) | loss of activity | No | No | > 512 µg/mL | > 512 µg/mL | 211 to 213 °C | > 512 µg/mL | > 512 µg/mL |  |  |  | activity against B. cenocepacia growth (B. cenocepacia): not active
CCCCCSc1ccc2nsnc2c1[N+](=O)[O-] [compound 10726015] | > 64 µg/mL | > 64 µg/mL |  | No | No | > 512 µg/mL | > 512 µg/mL | 116 to 118 °C | 512 µg/mL (≈ 1810 µM) | 512 µg/mL (≈ 1810 µM) | > 128 µg/mL | > 128 µg/mL |  | 
CCOC(=O)CSc1ccc2nsnc2c1[N+](=O)[O-] [compound 11426142] | 32 µg/mL (≈ 107 µM) | 32 µg/mL (≈ 107 µM) | partially lost activity | Yes | Yes | 8 µg/mL (≈ 26.7 µM) | 8 µg/mL (≈ 26.7 µM) | 172 to 174 °C | 4 µg/mL (≈ 13.4 µM) | 4 µg/mL (≈ 13.4 µM) | 32 µg/mL (≈ 107 µM) | 32 µg/mL (≈ 107 µM) | 21 µM | MIC (B. cenocepacia FCF22 [3]): 32 µg/mL (≈ 107 µM); MIC (B. cenocepacia FCF19 [4]): 32 µg/mL (≈ 107 µM); MIC (P. aeruginosa): 2 µg/mL; toxic concentration at 50% (TC50) [5]: 50 µM; MIC in the presence of MC-207.110, FCF22 (B. cenocepacia FCF22 [6]): did not change; MIC in the presence of MC-207.110, FCF19 (B. cenocepacia FCF19 [7]): did not change
O=[N+]([O-])c1c(SC(=S)N2CCSCC2)ccc2nsnc12 [compound 11126015] | > 128 µg/mL | > 128 µg/mL |  | Yes | Yes | > 512 µg/mL | > 512 µg/mL | 140 to 142 °C | 32 µg/mL (≈ 89.3 µM) | 32 µg/mL (≈ 89.3 µM) | > 128 µg/mL | > 128 µg/mL | 36 µM | spectrum of activity, in words (S. aureus ATCC 25923; S. aureus vs Gram-negative species): showed activity only against S. aureus
O=[N+]([O-])c1c(N=C=S)ccc2nsnc12 [compound 10026149] |  |  |  | Yes | Yes | 16 µg/mL (≈ 67.2 µM) |  | 185 to 187 °C | 2 µg/mL (≈ 8.39 µM) |  | 16 µg/mL (≈ 67.2 µM) |  |  | MIC (B. cenocepacia FCF22 [3]): 256 µg/mL (≈ 1070 µM); MIC B. cenocepacia FCF22 (B. cenocepacia FCF22 [3]): resistance; MIC (B. cenocepacia J2315; J2315, 48 h, read-out: MIC (µg/ml) B. cenocepacia J2315): 32 µg/mL (≈ 134 µM); MIC (B. cenocepacia J2315; J2315, 48 h, read-out: MIC B. cenocepacia J2315): 32 µg/mL (≈ 134 µM); MIC (B. cenocepacia FCF19 [4]): 64 µg/mL (≈ 269 µM); MIC B. cenocepacia FCF19 (B. cenocepacia FCF19 [4]): resistance; IC50 ([2]; read-out: Inhibition of Bc FtsZ IC50, GTPase activity): 20 µM; MIC (P. aeruginosa PAO1; PAO1, 24 h, Supplementary Table 1, read-out: MIC (µg/ml) P. aeruginosa PAO1): 16 µg/mL (≈ 67.2 µM); MIC (E. coli ATCC 25922; ATCC25922, 24 h, Supplementary Table 1, read-out: MIC (µg/ml) E. coli 25922): 16 µg/mL (≈ 67.2 µM); MIC (S. aureus ATCC 25923; ATCC25923, 24 h, Supplementary Table 1, read-out: MIC (µg/ml) S. aureus 25923): 2 µg/mL (≈ 8.39 µM)
COC(=O)CS(=O)(=O)c1ccc2nsnc2c1[N+](=O)[O-] [compound 11826109] | 256 µg/mL (≈ 807 µM) | 256 µg/mL (≈ 807 µM) | loss of activity | Yes | Yes | 128 µg/mL (≈ 403 µM) | 128 µg/mL (≈ 403 µM) | 123 to 125 °C | 16 µg/mL (≈ 50.4 µM) | 16 µg/mL (≈ 50.4 µM) | > 256 µg/mL | > 256 µg/mL | 30 µM | 
B1 |  |  |  |  |  |  |  |  |  |  |  |  |  | Km [8]: 80 ± 5 µM; Vmax [8]: 71.9 µmol/min/mg; kcat [8]: 165 ± 5.9 s⁻¹; kcat/Km [8]: 2.064e+06 ± 20100 M⁻¹ s⁻¹; Km [9]: 200 ± 21 µM; Vmax [9]: 7.6 µmol/min/mg; kcat [9]: 17.5 ± 1.4 s⁻¹; kcat/Km [9]: 87500 ± 8100 M⁻¹ s⁻¹
